The record followed here is ChEMBL document CHEMBL4229518, “New β-lactam - Tetramic acid hybrids show promising antibacterial activities” (Bioorg Med Chem Lett, 2018).

A word on the MIC: it is the smallest concentration in the dilution series that meets the test's criterion for growth inhibition.

Structures are written as SMILES. ≈ marks a conversion by molar mass, not a printed value.

The first experiment deals with Bacillus subtilis. Put plainly: Antimicrobial activity against Bacillus subtilis ATCC 23857 after 18 to 20 hrs by microbroth dilution method. In kind it is functional.
Details: not given
For orientation: In broth dilution the organism is exposed to a series of concentrations in liquid medium.
As for `CC(C)CC1NC(=O)C(C(=O)N[C@@H](C(=O)N[C@@H]2C(=O)N3[C@@H]2SC(C)(C)[C@@H]3C(=O)O)c2ccccc2)=C1O` (some centres not stated), the lowest concentration to inhibit growth (MIC) was 3.13 µg/mL (≈ 5.9 µM).

On to `CC(C)CC1NC(=O)C(C(=O)NCCCCCC(=O)N[C@@H](C(=O)N[C@@H]2C(=O)N3[C@@H]2SC(C)(C)[C@@H]3C(=O)O)c2ccccc2)=C1O` (some centres not stated), for which the lowest concentration to inhibit growth (MIC) was 3.13 µg/mL (≈ 4.86 µM).

Another experiment deals with Enterobacter cloacae. Put plainly: Antimicrobial activity against Enterobacter cloacae ATCC 13047 after 18 to 20 hrs by microbroth dilution method. The class given is functional. The settings on record: subsp. cloacae ATCC 13047.
Turning to `CC(C)CC1NC(=O)C(C(=O)N[C@@H](C(=O)N[C@@H]2C(=O)N3[C@@H]2SC(C)(C)[C@@H]3C(=O)O)c2ccccc2)=C1O` (some centres not stated), the MIC was > 200 µg/mL.

`CC(C)CC1NC(=O)C(C(=O)NCCCCCC(=O)N[C@@H](C(=O)N[C@@H]2C(=O)N3[C@@H]2SC(C)(C)[C@@H]3C(=O)O)c2ccccc2)=C1O` (some centres not stated): the MIC is > 200 µg/mL.

In another experiment the test system is Proteus mirabilis. As to the kind of experiment: Antimicrobial activity against Proteus mirabilis ATCC 25933 after 18 to 20 hrs by microbroth dilution method. In kind it is functional.
Details: not given
`CC(C)CC1NC(=O)C(C(=O)N[C@@H](C(=O)N[C@@H]2C(=O)N3[C@@H]2SC(C)(C)[C@@H]3C(=O)O)c2ccccc2)=C1O` (some centres not stated) displayed an MIC of 12.5 µg/mL (≈ 23.6 µM).

On to `CC(C)CC1NC(=O)C(C(=O)NCCCCCC(=O)N[C@@H](C(=O)N[C@@H]2C(=O)N3[C@@H]2SC(C)(C)[C@@H]3C(=O)O)c2ccccc2)=C1O` (some centres not stated), for which the MIC is 6.25 µg/mL (≈ 9.71 µM).

In another experiment the test system is Streptococcus pyogenes. As to the kind of experiment: Antimicrobial activity against Streptococcus pyogenes ATCC 700294 after 18 to 20 hrs by microbroth dilution method. In kind it is functional. As to conditions: M1 GAS.
Regarding `CC(C)CC1NC(=O)C(C(=O)N[C@@H](C(=O)N[C@@H]2C(=O)N3[C@@H]2SC(C)(C)[C@@H]3C(=O)O)c2ccccc2)=C1O` (some centres not stated), it took 0.39 µg/mL (≈ 0.735 µM) to inhibit growth (MIC).

`CC(C)CC1NC(=O)C(C(=O)NCCCCCC(=O)N[C@@H](C(=O)N[C@@H]2C(=O)N3[C@@H]2SC(C)(C)[C@@H]3C(=O)O)c2ccccc2)=C1O` (some centres not stated): the MIC was < 0.2 µg/mL.

The test system of a further experiment is Klebsiella pneumoniae. As to the kind of experiment: Antimicrobial activity against Klebsiella pneumoniae ATCC 33495 after 18 to 20 hrs by microbroth dilution method. The class given is functional.
Details: not given
In turn, `CC(C)CC1NC(=O)C(C(=O)N[C@@H](C(=O)N[C@@H]2C(=O)N3[C@@H]2SC(C)(C)[C@@H]3C(=O)O)c2ccccc2)=C1O` (some centres not stated) returned an MIC of 200 µg/mL (≈ 377 µM).

On to `CC(C)CC1NC(=O)C(C(=O)NCCCCCC(=O)N[C@@H](C(=O)N[C@@H]2C(=O)N3[C@@H]2SC(C)(C)[C@@H]3C(=O)O)c2ccccc2)=C1O` (some centres not stated), for which the MIC is > 200 µg/mL.

For a further experiment, the system named is Bacillus cereus. As to the kind of experiment: Antimicrobial activity against Bacillus cereus ATCC 14579 after 18 to 20 hrs by microbroth dilution method. The class given is functional.
Details: not given
`CC(C)CC1NC(=O)C(C(=O)N[C@@H](C(=O)N[C@@H]2C(=O)N3[C@@H]2SC(C)(C)[C@@H]3C(=O)O)c2ccccc2)=C1O` (some centres not stated) registered an MIC of 12.5 µg/mL (≈ 23.6 µM).

`CC(C)CC1NC(=O)C(C(=O)NCCCCCC(=O)N[C@@H](C(=O)N[C@@H]2C(=O)N3[C@@H]2SC(C)(C)[C@@H]3C(=O)O)c2ccccc2)=C1O` (some centres not stated) gave an MIC of 50 µg/mL (≈ 77.7 µM).

The test system of another experiment is Enterococcus faecalis. Put plainly: Antimicrobial activity against Enterococcus faecalis ATCC 33186 after 18 to 20 hrs by microbroth dilution method. In kind it is functional.
Details: not given
Turning to `CC(C)CC1NC(=O)C(C(=O)N[C@@H](C(=O)N[C@@H]2C(=O)N3[C@@H]2SC(C)(C)[C@@H]3C(=O)O)c2ccccc2)=C1O` (some centres not stated), inhibition of growth (MIC) required 25 µg/mL (≈ 47.1 µM).

`CC(C)CC1NC(=O)C(C(=O)NCCCCCC(=O)N[C@@H](C(=O)N[C@@H]2C(=O)N3[C@@H]2SC(C)(C)[C@@H]3C(=O)O)c2ccccc2)=C1O` (some centres not stated) registered an MIC of 25 µg/mL (≈ 38.8 µM).

The test system of another experiment is Escherichia coli. As to the kind of experiment: Antimicrobial activity against tolC deficient Escherichia coli JW5503-1 after 18 to 20 hrs by microbroth dilution method. The class given is functional.
Details: not given
Regarding `CC(C)CC1NC(=O)C(C(=O)N[C@@H](C(=O)N[C@@H]2C(=O)N3[C@@H]2SC(C)(C)[C@@H]3C(=O)O)c2ccccc2)=C1O` (some centres not stated), the MIC came to 6.25 µg/mL (≈ 11.8 µM).

As to `CC(C)CC1NC(=O)C(C(=O)NCCCCCC(=O)N[C@@H](C(=O)N[C@@H]2C(=O)N3[C@@H]2SC(C)(C)[C@@H]3C(=O)O)c2ccccc2)=C1O` (some centres not stated), the MIC was found to be 12.5 µg/mL (≈ 19.4 µM).

In the next experiment the test system is Acinetobacter baumannii. As to the kind of experiment: Antimicrobial activity against Acinetobacter baumannii ATCC 19606 after 18 to 20 hrs by microbroth dilution method. As to conditions: ATCC 19606 = CIP 70.34 = JCM 6841. In kind it is functional.
Consider `CC(C)CC1NC(=O)C(C(=O)N[C@@H](C(=O)N[C@@H]2C(=O)N3[C@@H]2SC(C)(C)[C@@H]3C(=O)O)c2ccccc2)=C1O` (some centres not stated), for which 50 µg/mL (≈ 94.2 µM) was the least that counted as inhibitory (MIC).

In turn, `CC(C)CC1NC(=O)C(C(=O)NCCCCCC(=O)N[C@@H](C(=O)N[C@@H]2C(=O)N3[C@@H]2SC(C)(C)[C@@H]3C(=O)O)c2ccccc2)=C1O` (some centres not stated) yielded an MIC of 100 µg/mL (≈ 155 µM).

A further experiment deals with Streptococcus pneumoniae. As to the kind of experiment: Antimicrobial activity against Streptococcus pneumoniae R6 after 18 to 20 hrs by microbroth dilution method. The class given is functional.
Details: not given
The compound `CC(C)CC1NC(=O)C(C(=O)N[C@@H](C(=O)N[C@@H]2C(=O)N3[C@@H]2SC(C)(C)[C@@H]3C(=O)O)c2ccccc2)=C1O` (some centres not stated) registered an MIC of 0.39 µg/mL (≈ 0.735 µM).

As for `CC(C)CC1NC(=O)C(C(=O)NCCCCCC(=O)N[C@@H](C(=O)N[C@@H]2C(=O)N3[C@@H]2SC(C)(C)[C@@H]3C(=O)O)c2ccccc2)=C1O` (some centres not stated), the MIC is < 0.2 µg/mL.

The subject of the next experiment is Staphylococcus aureus. Put plainly: Antimicrobial activity against methicillin-susceptible Staphylococcus aureus NRS70 after 18 to 20 hrs by microbroth dilution method. In kind it is functional.
Details: not given
Compound `CC(C)CC1NC(=O)C(C(=O)N[C@@H](C(=O)N[C@@H]2C(=O)N3[C@@H]2SC(C)(C)[C@@H]3C(=O)O)c2ccccc2)=C1O` (some centres not stated) gave an MIC of 25 µg/mL (≈ 47.1 µM).

In the case of `CC(C)CC1NC(=O)C(C(=O)NCCCCCC(=O)N[C@@H](C(=O)N[C@@H]2C(=O)N3[C@@H]2SC(C)(C)[C@@H]3C(=O)O)c2ccccc2)=C1O` (some centres not stated), the MIC was 50 µg/mL (≈ 77.7 µM).

In another experiment the test system is Bacillus anthracis. Put plainly: Antimicrobial activity against Bacillus anthracis Sterne 34F2 after 18 to 20 hrs by microbroth dilution method. The class given is functional.
Details: not given
In turn, `CC(C)CC1NC(=O)C(C(=O)N[C@@H](C(=O)N[C@@H]2C(=O)N3[C@@H]2SC(C)(C)[C@@H]3C(=O)O)c2ccccc2)=C1O` (some centres not stated) registered an MIC of 3.13 µg/mL (≈ 5.9 µM).

Regarding `CC(C)CC1NC(=O)C(C(=O)NCCCCCC(=O)N[C@@H](C(=O)N[C@@H]2C(=O)N3[C@@H]2SC(C)(C)[C@@H]3C(=O)O)c2ccccc2)=C1O` (some centres not stated), 3.13 µg/mL (≈ 4.86 µM) was the least that counted as inhibitory (MIC).

For the next experiment, the system named is Escherichia coli. As to the kind of experiment: Antimicrobial activity against Escherichia coli BW25113 after 18 to 20 hrs by microbroth dilution method.
Details: not given
The class given is functional.
`CC(C)CC1NC(=O)C(C(=O)N[C@@H](C(=O)N[C@@H]2C(=O)N3[C@@H]2SC(C)(C)[C@@H]3C(=O)O)c2ccccc2)=C1O` (some centres not stated) displayed an MIC of 50 µg/mL (≈ 94.2 µM).

Take `CC(C)CC1NC(=O)C(C(=O)NCCCCCC(=O)N[C@@H](C(=O)N[C@@H]2C(=O)N3[C@@H]2SC(C)(C)[C@@H]3C(=O)O)c2ccccc2)=C1O` (some centres not stated): the lowest concentration to inhibit growth (MIC) was 50 µg/mL (≈ 77.7 µM).

A further experiment has as its system Staphylococcus aureus. As to the kind of experiment: Antimicrobial activity against methicillin-susceptible Staphylococcus aureus ATCC 29213 after 18 to 20 hrs by microbroth dilution method. The class given is functional.
Details: not given
For `CC(C)CC1NC(=O)C(C(=O)N[C@@H](C(=O)N[C@@H]2C(=O)N3[C@@H]2SC(C)(C)[C@@H]3C(=O)O)c2ccccc2)=C1O` (some centres not stated), the MIC was found to be 0.78 µg/mL (≈ 1.47 µM).

In turn, `CC(C)CC1NC(=O)C(C(=O)NCCCCCC(=O)N[C@@H](C(=O)N[C@@H]2C(=O)N3[C@@H]2SC(C)(C)[C@@H]3C(=O)O)c2ccccc2)=C1O` (some centres not stated) showed an MIC of 0.78 µg/mL (≈ 1.21 µM).

The subject of another experiment is Stenotrophomonas maltophilia. As to the kind of experiment: Antimicrobial activity against Stenotrophomonas maltophilia ATCC 700475 after 18 to 20 hrs by microbroth dilution method.
Details: not given
The class given is functional.
Compound `CC(C)CC1NC(=O)C(C(=O)N[C@@H](C(=O)N[C@@H]2C(=O)N3[C@@H]2SC(C)(C)[C@@H]3C(=O)O)c2ccccc2)=C1O` (some centres not stated) returned an MIC of 6.25 µg/mL (≈ 11.8 µM).

In turn, `CC(C)CC1NC(=O)C(C(=O)NCCCCCC(=O)N[C@@H](C(=O)N[C@@H]2C(=O)N3[C@@H]2SC(C)(C)[C@@H]3C(=O)O)c2ccccc2)=C1O` (some centres not stated) registered an MIC of 25 µg/mL (≈ 38.8 µM).

The test system of a further experiment is Pseudomonas aeruginosa. As to the kind of experiment: Antimicrobial activity against Pseudomonas aeruginosa PAO1 after 18 to 20 hrs by microbroth dilution method.
Details: not given
The class given is functional.
In the case of `CC(C)CC1NC(=O)C(C(=O)N[C@@H](C(=O)N[C@@H]2C(=O)N3[C@@H]2SC(C)(C)[C@@H]3C(=O)O)c2ccccc2)=C1O` (some centres not stated), the lowest concentration to inhibit growth (MIC) was 12.5 µg/mL (≈ 23.6 µM).

`CC(C)CC1NC(=O)C(C(=O)NCCCCCC(=O)N[C@@H](C(=O)N[C@@H]2C(=O)N3[C@@H]2SC(C)(C)[C@@H]3C(=O)O)c2ccccc2)=C1O` (some centres not stated) yielded an MIC of 50 µg/mL (≈ 77.7 µM).
